Molecules are shown by their SMILES.

The molecule `COC(=O)c1ccc(Oc2ccc(NC(=O)Nc3ccc(Cl)c(C(F)(F)F)c3)cc2)cn1` [Entry 55, N-(4-chloro-3-(trifluoromethyl)phenyl)-N′-(4-(2-(methoxycarbonyl)-5-pyridyloxy)phenyl)urea] showed a melting point of 228 to 230 °C.

Molecule `CNC(=O)c1cc(Oc2ccc(NC(=O)Nc3ccc(Oc4ccnc(C(=O)NC)c4)cc3)cc2)ccn1` [Entry 103, bis(4-(2-(N-methylcarbamoyl)-4-pyridyloxy)phenyl)urea] showed a melting point of 125 to 130 °C.

Source of the values: US8841330B2, “Omega-carboxyaryl substituted diphenyl ureas as raf kinase inhibitors” (Bayer Healthcare LLC, priority 2000, dated 2014).
